In patent US11092608B2, “Methods of identifying modulators of CASTOR1-GATOR2 interaction and use of same to modulate mTORC1” (Whitehead Institute for Biomedical Research, priority 2015, dated 2021):
“And” between values parts separate entries of the source, which are not always exact repeats. Equal entries are not always repeated.

How the values were obtained:
[1] = target: T1, CASTOR1 homodimer (Homo sapiens, UniProt Q8WTX7); assay: Arginine binding assay (equilibrium / competition binding with [3H]-labeled amino acids); details: for binding of radiolabeled amino acid to CASTOR1 homodimer: immunopurified from HEK-293T cells, competed by excess nonradiolabelled arginine
T1 construct: made in house; host or cells: HEK-293T (transfected, pRK5-based cDNA plasmids; anti-FLAG immunoprecipitates)
T1 sequence (Q8WTX7 1-329) 1: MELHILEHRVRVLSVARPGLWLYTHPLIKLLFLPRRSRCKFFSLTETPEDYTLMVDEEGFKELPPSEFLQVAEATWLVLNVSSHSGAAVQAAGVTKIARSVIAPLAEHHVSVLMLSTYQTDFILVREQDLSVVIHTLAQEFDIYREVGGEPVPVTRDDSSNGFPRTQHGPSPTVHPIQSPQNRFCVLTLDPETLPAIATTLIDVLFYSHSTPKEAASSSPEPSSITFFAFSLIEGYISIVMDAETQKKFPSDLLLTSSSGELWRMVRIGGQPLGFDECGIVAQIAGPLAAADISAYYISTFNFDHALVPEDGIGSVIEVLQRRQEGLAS
T1 sequence (Q8WTX7 1-329) 2: T1 sequence (Q8WTX7 1-329) 1
Experimental: (§1) Four million HEK-293T cells were plated in a 15 cm plate four days prior to the experiment. Forty-eight hours after plating, the cells were transfected via the polyethylenimine method (Boussif et al., 1995) with the pRK5-based cDNA expression plasmids indicated in the figures in the following amounts: 15 μg FLAG-Rap2A, 400 ng CASTOR1-FLAG or CASTOR2-FLAG with 1200 ng CASTOR1-HA or 1200 ng CASTOR2-HA, 400 ng CASTOR1 1280A-FLAG with 1200 ng CASTOR1 1280A-HA. The total amount of plasmid DNA in each transfection was normalized to 15 μg with empty pRK5. Forty-eight hours after transfection cells were lysed as previously described (Wolfson et al., 2015). If multiple samples of the same type were represented in the experiment, the cell lysates were combined, mixed, and evenly distributed amongst the relevant tubes.
(§2) Anti-FLAG immunoprecipitates were prepared as previously described, with the exception that prior to incubation with lysates, the beads were blocked by rotating in 1 μg/μl bovine serum albumin (BSA) for 20 minutes at 4° C. and subsequently washed twice in lysis buffer. Thirty μl of the 50% slurry of beads in lysis buffer was added to each of the clarified cell lysates and incubated for 90 minutes.
(§3) For the binding assays, all immunoprecipitates were washed in pairs once with Triton wash buffer, three times with Triton lysis buffer supplemented with 500 mM NaCl, and three times with cytosolic buffer (0.1% Triton, 40 mM HEPES pH 7.4, 10 mM NaCl, 150 mM KCl, 2.5 mM MgCl2). All the liquid was subsequently aspirated and a 15 μl aliquot of proteins bound to the beads was incubated for one hour on ice in cytosolic buffer with the appropriate amount of [^3H]-labeled amino acids and cold amino acids. At the end of one hour, the beads were spun at 2,500 rpm for 25 seconds, aspirated, and rapidly washed three times with binding wash buffer (0.1% Triton, 40 mM HEPES pH 7.4, 150 mM NaCl). The beads were aspirated dry and resuspended in 85 μl of binding wash buffer. Three 10 μl aliquots of this mix were separately quantified using a TriCarb scintillation counter (PerkinElmer).
(§4) For each sample, an immunoprecipitation was performed in parallel. After washing four times as previously described, the beads were aspirated dry and resuspended in 50 μl FLAG elution buffer (Triton wash buffer supplemented with 300 mM NaCl and 1 mg/ml FLAG peptide), and incubated with rotation for 1 hour at 4° C. The eluent was subsequently resuspended in sample buffer. Equal volumes of the eluent were resolved by 10% SDS-PAGE and analyzed with Coomassie Blue stain. Kd values were calculated as previously described (Wolfson et al., 2015).

[2] = target: T2, CASTOR1-CASTOR2 heterodimer (Homo sapiens, UniProt Q8WTX7); assay: as above
T2 construct: made in house; host or cells: HEK-293T (transfected, pRK5-based cDNA plasmids; anti-FLAG immunoprecipitates)
T2 sequence (Q8WTX7 1-329): T1 sequence (Q8WTX7 1-329) 1
T2 sequence (A6NHX0 1-329 partner): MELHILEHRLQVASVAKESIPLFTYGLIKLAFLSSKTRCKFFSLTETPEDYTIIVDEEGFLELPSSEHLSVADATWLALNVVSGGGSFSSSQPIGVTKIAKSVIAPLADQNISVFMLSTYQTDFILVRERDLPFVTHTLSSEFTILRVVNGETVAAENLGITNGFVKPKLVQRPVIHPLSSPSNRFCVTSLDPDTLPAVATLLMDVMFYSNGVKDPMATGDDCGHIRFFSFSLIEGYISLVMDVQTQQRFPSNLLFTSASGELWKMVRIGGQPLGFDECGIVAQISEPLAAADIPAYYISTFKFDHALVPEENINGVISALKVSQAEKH
Experimental: as §1, §2, §3, §4

[3] = target: T3, CASTOR2 homodimer (Homo sapiens, UniProt A6NHX0); assay: Arginine binding assay (equilibrium binding with [3H]-labeled arginine); details: immunopurified from HEK-293T cells
T3 construct: made in house; host or cells: HEK-293T (transfected, pRK5-based cDNA plasmids; anti-FLAG immunoprecipitates)
T3 sequence (A6NHX0 1-329) 1: T2 sequence (A6NHX0 1-329 partner)
T3 sequence (A6NHX0 1-329) 2: T2 sequence (A6NHX0 1-329 partner)
Experimental: as §1, with “If multiple samples of the same type were represented in the experiment, the cell lysates were combined, mixed, and evenly distributed amongst the relevant tubes.” left out
For the binding assays, all immunoprecipitates were washed in pairs once with Triton wash buffer, three times with Triton lysis buffer supplemented with 500 mM NaCl, and three times with cytosolic buffer (0.1% Triton, 40 mM HEPES pH 7.4, 10 mM NaCl, 150 mM KCl, 2.5 mM MgCl2). […] Three 10 μl aliquots of this mix were separately quantified using a TriCarb scintillation counter (PerkinElmer).
For each sample, an immunoprecipitation was performed in parallel. […] Equal volumes of the eluent were resolved by 10% SDS-PAGE and analyzed with Coomassie Blue stain. Kd values were calculated as previously described (Wolfson et al., 2015).

[4] = target: T4, interaction of GATOR2 with CASTOR1-CASTOR2 heterodimer (Homo sapiens, UniProt Q8WTX7); assay: In vitro CASTOR-GATOR2 dissociation assay; assay type: biochemical
T4 construct: made in house; host or cells: HEK-293T co-transfected with the CASTOR cDNAs; GATOR2 is the cells' endogenous complex, co-immunoprecipitated on anti-HA beads
T4 sequence (Q8WTX7 1-329): T1 sequence (Q8WTX7 1-329) 1
T4 sequence (A6NHX0 1-329 partner): T2 sequence (A6NHX0 1-329 partner)
Experimental: (§5) HEK-293T cells co-transfected with 40 ng CASTOR1-HA and either 80 ng CASTOR1-FLAG (CASTOR1 homodimer) or 80 ng CASTOR2-FLAG (CASTOR1-CASTOR2 heterodimer) were starved for all amino acids for 50 minutes, lysed and subjected to anti-HA immunoprecipitation as described previously. The CASTOR-GATOR2 complexes immobilized on agarose beads were washed once in Triton wash buffer, three times in Triton wash buffer supplemented with 500 mM NaCl, and then incubated for 20 minutes in 1 mL of ice-cold Triton wash buffer supplemented with 500 mM NaCl and the indicated concentrations of individual amino acids. The amount of GATOR2 that remained bound to CASTOR complexes was assayed by SDS-PAGE and immunoblotting as previously described.

[5] = target: T5, interaction of GATOR2 with CASTOR1 homodimer (Homo sapiens, UniProt Q8WTX7); assay: In vitro CASTOR-GATOR2 dissociation assay; assay type: biochemical
T5 construct: made in house; host or cells: HEK-293T co-transfected with the CASTOR cDNAs; GATOR2 is the cells' endogenous complex, co-immunoprecipitated on anti-HA beads
T5 sequence (Q8WTX7 1-329) 1: T1 sequence (Q8WTX7 1-329) 1
T5 sequence (Q8WTX7 1-329) 2: T1 sequence (Q8WTX7 1-329) 1
Experimental: as §5

[6] = competition binding with increasing cold arginine, FLAG immunoprecipitates from HEK-293T cells
[7] = 400 μM arginine added to purified complexes

CC(C)C[C@H](N)C(=O)O [leucine]
binding of radiolabeled amino acid to CASTOR1 homodimer [1]: neither radiolabeled leucine nor lysine bound

N=C(N)NCCC[C@H](N)C(=O)O [arginine]
arginine binding to CASTOR1-CASTOR2 heterodimer purified from E. coli ([2]; bacterially produced protein): bound arginine to a comparable degree as the complexes prepared from human cells | Kd [2, 6]: ~30 µM and 24.2 µM | amount of arginine bound by CASTOR1-CASTOR2 heterodimer relative to CASTOR1 homodimer ([2]; immunopurified from HEK-293T cells): roughly half as much arginine as the CASTOR1 homodimer | arginine binding to CASTOR1 homodimer purified from E. coli ([1]; bacterially produced protein): bound arginine to a comparable degree as the complexes prepared from human cells | Kd [1, 6]: ~30 µM and 34.8 µM | binding of radiolabeled amino acid to CASTOR1 homodimer [1]: bound | binding of tritiated arginine to CASTOR2 homodimer [3]: not | dissociation of GATOR2 from CASTOR1-CASTOR2 heterodimer [4, 7]: sufficient to dissociate GATOR2 | EC50 ([4]; purified complexes from amino acid starved HEK-293T cells, CASTOR1-CASTOR2 heterodimer, read-out: arginine concentration for half-maximal disruption of GATOR2 interaction): 20 to 40 µM | dissociation of GATOR2 from CASTOR1 homodimer [5, 7]: sufficient to dissociate GATOR2 | EC50 ([5]; purified complexes from amino acid starved HEK-293T cells, CASTOR1 homodimer, read-out: arginine concentration for half-maximal disruption of GATOR2 interaction): 20 to 40 µM

NCCCC[C@H](N)C(=O)O [lysine]
binding of radiolabeled amino acid to CASTOR1 homodimer [1]: neither radiolabeled leucine nor lysine bound
